Measured values: patent US11542304B2, “Multimeric bicyclic peptide ligands” (BicycleTx Limited, priority 2018, dated 2023)

Biological target: CD137 (Homo sapiens, UniProt Q07011)
Experiment: CD137 Promega reporter cell activity assay (NF-κB luciferase in Jurkat cells)
Conditions: for Average Fold EC50 Improvement relative to CD137L: Average EC50 for CD137L = 14.2 nM; for Average Relative Fold Induction relative to CD137L: Average fold induction for CD137L = 4.0
Procedure: CD137 binding multimers were evaluated for CD137 using a Reporter cell activity assay that uses NF-κB luciferase luminescence as a read-out of CD137 activation in Jurkat cells. […] Samples were diluted at concentration expected to give the maximum fold induction and then titrated down in 1/3 dilution series or 1/10 dilution series in a sterile 96 well-plate. […] 50 μl cells were added per well to white cell culture plates.
Cells were co-incubated together with agonists for 6 h at 37° C., 5% CO2. After 6 h Bio-Glo™ was thawed and the assay developed at room-temperature. 75 ul Bio-Glo™ was added per well and incubated for 5-10 min. Luciferase signal was read on a Pherastar plate-reader using MARS program. Data was analysed by transforming the data to x=log (X), then plotting log (agonist) vs. response variable slope (4 parameters) to calculate EC50 values.

Chain of CD137 (Q07011 24-255): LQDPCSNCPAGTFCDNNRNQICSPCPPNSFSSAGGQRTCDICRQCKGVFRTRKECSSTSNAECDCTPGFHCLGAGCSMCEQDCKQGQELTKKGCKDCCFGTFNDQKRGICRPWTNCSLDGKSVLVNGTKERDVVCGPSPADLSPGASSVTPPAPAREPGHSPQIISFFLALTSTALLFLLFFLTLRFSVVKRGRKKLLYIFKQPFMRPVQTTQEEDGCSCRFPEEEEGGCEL

Q: Which “Average Fold EC50 Improvement relative to CD137L” value does the source give for `CCCC[C@@H]1NC(=O)[C@H](Cc2ccc(O)cc2)NC(=O)[C@@H]2CCCN2C(=O)[C@H](CC(=O)O)NC(=O)[C@H](C)NC(=O)[C@H](Cc2ccccc2)NC(=O)[C@@H]2CSCCC(=O)N3CN(CN(C3)C(=O)CCSC[C@@H](C(=O)N[C@@H](C)C(N)=O)NC1=O)C(=O)CCSC[C@H](NC(=O)[C@H](C)NC(C)=O)C(=O)N[C@@H]([C@@H](C)CC)C(=O)N[C@@H](CCC(=O)O)C(=O)N[C@@H](CCC(=O)O)C(=O)N[C@H](CCCCNC(=O)OCC1C3CCc4nnn(CCOCCOCCOCCOCCOCCOCCOCCOCCOCCOCCNC(=O)CCOCC(COCCC(=O)NCCOCCOCCOCCOCCOCCOCCOCCOCCOCCOCCn5nnc6c5CCC5C(CC6)C5COC(=O)NCCCC[C@H]5NC(=O)[C@H](CCC(=O)O)NC(=O)[C@H](CCC(=O)O)NC(=O)[C@H]([C@@H](C)CC)NC(=O)[C@@H](NC(=O)[C@H](C)NC(C)=O)CSCCC(=O)N6CN7CN(C6)C(=O)CCSC[C@H](NC(=O)[C@H](Cc6ccc(O)cc6)NC(=O)[C@H](CCC(N)=O)NC5=O)C(=O)N[C@@H](Cc5ccccc5)C(=O)N[C@@H](C)C(=O)N[C@@H](CC(=O)O)C(=O)N5CCC[C@H]5C(=O)N[C@@H](Cc5ccc(O)cc5)C(=O)N[C@@H](CCCC)C(=O)N[C@H](C(=O)N[C@@H](C)C(N)=O)CSCCC7=O)(COCCC(=O)NCCOCCOCCOCCOCCOCCOCCOCCOCCOCCOCCn5nnc6c5CCC5C(CC6)C5COC(=O)NCCCC[C@H]5NC(=O)[C@H](CCC(=O)O)NC(=O)[C@H](CCC(=O)O)NC(=O)[C@H]([C@@H](C)CC)NC(=O)[C@@H](NC(=O)[C@H](C)NC(C)=O)CSCCC(=O)N6CN7CN(C6)C(=O)CCSC[C@H](NC(=O)[C@H](Cc6ccc(O)cc6)NC(=O)[C@H](CCC(N)=O)NC5=O)C(=O)N[C@@H](Cc5ccccc5)C(=O)N[C@@H](C)C(=O)N[C@@H](CC(=O)O)C(=O)N5CCC[C@H]5C(=O)N[C@@H](Cc5ccc(O)cc5)C(=O)N[C@@H](CCCC)C(=O)N[C@H](C(=O)N[C@@H](C)C(N)=O)CSCCC7=O)COCCC(=O)NCCOCCOCCOCCOCCOCCOCCOCCOCCOCCOCCn5nnc6c5CCC5C(CC6)C5COC(=O)NCCCC[C@H]5NC(=O)[C@H](CCC(=O)O)NC(=O)[C@H](CCC(=O)O)NC(=O)[C@H]([C@@H](C)CC)NC(=O)[C@@H](NC(=O)[C@H](C)NC(C)=O)CSCCC(=O)N6CN7CN(C6)C(=O)CCSC[C@H](NC(=O)[C@H](Cc6ccc(O)cc6)NC(=O)[C@H](CCC(N)=O)NC5=O)C(=O)N[C@@H](Cc5ccccc5)C(=O)N[C@@H](C)C(=O)N[C@@H](CC(=O)O)C(=O)N5CCC[C@H]5C(=O)N[C@@H](Cc5ccc(O)cc5)C(=O)N[C@@H](CCCC)C(=O)N[C@H](C(=O)N[C@@H](C)C(N)=O)CSCCC7=O)c4CCC31)C(=O)N[C@@H](CCC(N)=O)C(=O)N[C@@H](Cc1ccc(O)cc1)C(=O)N2` (some centres unmarked) [BCY8104] here?
A: 103.27

Q: What about the “Average Relative Fold Induction relative to CD137L” value of the same compound?
A: 1.65

Q: Which results are given for `CC[C@H](C)[C@@H]1NC(=O)[C@@H](NC(=O)[C@H](C)NC(C)=O)CSCCC(=O)N2CN3CN(C2)C(=O)CCSC[C@H](NC(=O)[C@H](Cc2ccc(O)cc2)NC(=O)[C@H](CCC(N)=O)NC(=O)CNC(=O)[C@H](CCC(=O)O)NC(=O)[C@H](CCC(=O)O)NC1=O)C(=O)N[C@@H](Cc1ccccc1)C(=O)N[C@@H](C)C(=O)N[C@@H](CC(=O)O)C(=O)N1CCC[C@H]1C(=O)N[C@@H](Cc1ccc(O)cc1)C(=O)N[C@@H](CCCCNC(=O)OCC1C2CCc4nnn(CCOCCOCCOCCOCCOCCOCCOCCOCCOCCOCCNC(=O)CCOCCN(CCOCCC(=O)NCCOCCOCCOCCOCCOCCOCCOCCOCCOCCOCCn5nnc6c5CCC5C(CC6)C5COC(=O)NCCCC[C@@H]5NC(=O)[C@H](Cc6ccc(O)cc6)NC(=O)[C@@H]6CCCN6C(=O)[C@H](CC(=O)O)NC(=O)[C@H](C)NC(=O)[C@H](Cc6ccccc6)NC(=O)[C@@H]6CSCCC(=O)N7CN(CN(C7)C(=O)CCSC[C@@H](C(=O)N[C@@H](C)C(N)=O)NC5=O)C(=O)CCSC[C@H](NC(=O)[C@H](C)NC(C)=O)C(=O)N[C@@H]([C@@H](C)CC)C(=O)N[C@@H](CCC(=O)O)C(=O)N[C@@H](CCC(=O)O)C(=O)NCC(=O)N[C@@H](CCC(N)=O)C(=O)N[C@@H](Cc5ccc(O)cc5)C(=O)N6)CCOCCC(=O)NCCOCCOCCOCCOCCOCCOCCOCCOCCOCCOCCn5nnc6c5CCC5C(CC6)C5COC(=O)NCCCC[C@@H]5NC(=O)[C@H](Cc6ccc(O)cc6)NC(=O)[C@@H]6CCCN6C(=O)[C@H](CC(=O)O)NC(=O)[C@H](C)NC(=O)[C@H](Cc6ccccc6)NC(=O)[C@@H]6CSCCC(=O)N7CN(CN(C7)C(=O)CCSC[C@@H](C(=O)N[C@@H](C)C(N)=O)NC5=O)C(=O)CCSC[C@H](NC(=O)[C@H](C)NC(C)=O)C(=O)N[C@@H]([C@@H](C)CC)C(=O)N[C@@H](CCC(=O)O)C(=O)N[C@@H](CCC(=O)O)C(=O)NCC(=O)N[C@@H](CCC(N)=O)C(=O)N[C@@H](Cc5ccc(O)cc5)C(=O)N6)c4CCC21)C(=O)N[C@H](C(=O)N[C@@H](C)C(N)=O)CSCCC3=O` (some centres unmarked) [BCY8106]?
A: Average Fold EC50 Improvement relative to CD137L: 1.26; Average Relative Fold Induction relative to CD137L: 0.94

Q: `CC[C@H](C)[C@@H]1NC(=O)[C@@H](NC(=O)[C@H](C)NC(C)=O)CSCCC(=O)N2CN3CN(C2)C(=O)CCSC[C@H](NC(=O)[C@H](Cc2ccc(O)cc2)NC(=O)[C@H](CCC(N)=O)NC(=O)CNC(=O)[C@H](CCC(=O)O)NC(=O)[C@H](CCC(=O)O)NC1=O)C(=O)N[C@@H](Cc1ccccc1)C(=O)N[C@@H](C)C(=O)N[C@@H](CC(=O)O)C(=O)N1CCC[C@H]1C(=O)N[C@@H](Cc1ccc(O)cc1)C(=O)N[C@@H](CCCCNC(=O)OCC1C2CCc4nnn(CCOCCOCCOCCOCCOCCOCCOCCOCCOCCOCCOCCOCCOCCOCCOCCOCCOCCOCCOCCOCCOCCOCCOCCNC(=O)CCOCCN(CCOCCC(=O)NCCOCCOCCOCCOCCOCCOCCOCCOCCOCCOCCOCCOCCOCCOCCOCCOCCOCCOCCOCCOCCOCCOCCOCCn5nnc6c5CCC5C(CC6)C5COC(=O)NCCCC[C@@H]5NC(=O)[C@H](Cc6ccc(O)cc6)NC(=O)[C@@H]6CCCN6C(=O)[C@H](CC(=O)O)NC(=O)[C@H](C)NC(=O)[C@H](Cc6ccccc6)NC(=O)[C@@H]6CSCCC(=O)N7CN(CN(C7)C(=O)CCSC[C@@H](C(=O)N[C@@H](C)C(N)=O)NC5=O)C(=O)CCSC[C@H](NC(=O)[C@H](C)NC(C)=O)C(=O)N[C@@H]([C@@H](C)CC)C(=O)N[C@@H](CCC(=O)O)C(=O)N[C@@H](CCC(=O)O)C(=O)NCC(=O)N[C@@H](CCC(N)=O)C(=O)N[C@@H](Cc5ccc(O)cc5)C(=O)N6)CCOCCC(=O)NCCOCCOCCOCCOCCOCCOCCOCCOCCOCCOCCOCCOCCOCCOCCOCCOCCOCCOCCOCCOCCOCCOCCOCCn5nnc6c5CCC5C(CC6)C5COC(=O)NCCCC[C@@H]5NC(=O)[C@H](Cc6ccc(O)cc6)NC(=O)[C@@H]6CCCN6C(=O)[C@H](CC(=O)O)NC(=O)[C@H](C)NC(=O)[C@H](Cc6ccccc6)NC(=O)[C@@H]6CSCCC(=O)N7CN(CN(C7)C(=O)CCSC[C@@H](C(=O)N[C@@H](C)C(N)=O)NC5=O)C(=O)CCSC[C@H](NC(=O)[C@H](C)NC(C)=O)C(=O)N[C@@H]([C@@H](C)CC)C(=O)N[C@@H](CCC(=O)O)C(=O)N[C@@H](CCC(=O)O)C(=O)NCC(=O)N[C@@H](CCC(N)=O)C(=O)N[C@@H](Cc5ccc(O)cc5)C(=O)N6)c4CCC21)C(=O)N[C@H](C(=O)N[C@@H](C)C(N)=O)CSCCC3=O` (some centres unmarked) [BCY8107] was tested. Which “Average Fold EC50 Improvement relative to CD137L” value did it give?
A: 64.33

Q: And the “Average Relative Fold Induction relative to CD137L” value?
A: 0.64

Q: Which results are given for `CC[C@H](C)[C@@H]1NC(=O)[C@@H](NC(=O)[C@H](C)NC(C)=O)CSCCC(=O)N2CN3CN(C2)C(=O)CCSC[C@H](NC(=O)[C@H](Cc2ccc(O)cc2)NC(=O)[C@H](CCC(N)=O)NC(=O)CNC(=O)[C@H](CCC(=O)O)NC(=O)[C@H](CCC(=O)O)NC1=O)C(=O)N[C@@H](Cc1ccccc1)C(=O)N[C@@H](C)C(=O)N[C@@H](CC(=O)O)C(=O)N1CCC[C@H]1C(=O)N[C@@H](Cc1ccc(O)cc1)C(=O)N[C@@H](CCCCNC(=O)OCC1C2CCc4nnn(CCOCCOCCOCCOCCOCCOCCOCCOCCOCCOCCNC(=O)CCOCC(COCCC(=O)NCCOCCOCCOCCOCCOCCOCCOCCOCCOCCOCCn5nnc6c5CCC5C(CC6)C5COC(=O)NCCCC[C@@H]5NC(=O)[C@H](Cc6ccc(O)cc6)NC(=O)[C@@H]6CCCN6C(=O)[C@H](CC(=O)O)NC(=O)[C@H](C)NC(=O)[C@H](Cc6ccccc6)NC(=O)[C@@H]6CSCCC(=O)N7CN(CN(C7)C(=O)CCSC[C@@H](C(=O)N[C@@H](C)C(N)=O)NC5=O)C(=O)CCSC[C@H](NC(=O)[C@H](C)NC(C)=O)C(=O)N[C@@H]([C@@H](C)CC)C(=O)N[C@@H](CCC(=O)O)C(=O)N[C@@H](CCC(=O)O)C(=O)NCC(=O)N[C@@H](CCC(N)=O)C(=O)N[C@@H](Cc5ccc(O)cc5)C(=O)N6)(COCCC(=O)NCCOCCOCCOCCOCCOCCOCCOCCOCCOCCOCCn5nnc6c5CCC5C(CC6)C5COC(=O)NCCCC[C@@H]5NC(=O)[C@H](Cc6ccc(O)cc6)NC(=O)[C@@H]6CCCN6C(=O)[C@H](CC(=O)O)NC(=O)[C@H](C)NC(=O)[C@H](Cc6ccccc6)NC(=O)[C@@H]6CSCCC(=O)N7CN(CN(C7)C(=O)CCSC[C@@H](C(=O)N[C@@H](C)C(N)=O)NC5=O)C(=O)CCSC[C@H](NC(=O)[C@H](C)NC(C)=O)C(=O)N[C@@H]([C@@H](C)CC)C(=O)N[C@@H](CCC(=O)O)C(=O)N[C@@H](CCC(=O)O)C(=O)NCC(=O)N[C@@H](CCC(N)=O)C(=O)N[C@@H](Cc5ccc(O)cc5)C(=O)N6)COCCC(=O)NCCOCCOCCOCCOCCOCCOCCOCCOCCOCCOCCn5nnc6c5CCC5C(CC6)C5COC(=O)NCCCC[C@@H]5NC(=O)[C@H](Cc6ccc(O)cc6)NC(=O)[C@@H]6CCCN6C(=O)[C@H](CC(=O)O)NC(=O)[C@H](C)NC(=O)[C@H](Cc6ccccc6)NC(=O)[C@@H]6CSCCC(=O)N7CN(CN(C7)C(=O)CCSC[C@@H](C(=O)N[C@@H](C)C(N)=O)NC5=O)C(=O)CCSC[C@H](NC(=O)[C@H](C)NC(C)=O)C(=O)N[C@@H]([C@@H](C)CC)C(=O)N[C@@H](CCC(=O)O)C(=O)N[C@@H](CCC(=O)O)C(=O)NCC(=O)N[C@@H](CCC(N)=O)C(=O)N[C@@H](Cc5ccc(O)cc5)C(=O)N6)c4CCC21)C(=O)N[C@H](C(=O)N[C@@H](C)C(N)=O)CSCCC3=O` (some centres unmarked) [BCY8108]?
A: Average Fold EC50 Improvement relative to CD137L: 34.03; Average Relative Fold Induction relative to CD137L: 0.79
